Test results reported in the supplement of paper PMC10331698.
± gives the standard deviation of the averaged measurements.

Assays:
Experiment in all cases: level (log10 ratio to DMSO vehicle control); higher = higher biomarker level / cell amount than vehicle control
Conditions in all cases: in DMSO
[1] = compound: CCN(CCO)S(=O)(=O)C(F)(F)C(F)(F)C(F)(F)C(F)(F)C(F)(F)C(F)(F)C(F)(F)C(F)(F)F [N-Ethyl-N-(2-hydroxyethyl)perfluorooctanesulfonamide]
Protocol: (§1)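 BioMAP Diversity Plus panel of 12 human primary cell co-culture systems (3C, 4H, LPS, SAg, BT, BF4T, BE3C, CASM3C, HDF3CGF, KF3CT, MyoF, Mphg). Compounds were added 1 h before stimulation and left for 24 h (MyoF 48 h; BT 72 h for soluble read-outs or 6 d for IgG). Biomarkers were read by ELISA, cytotoxicity by SRB, PBMC viability and proliferation by Alamar Blue. Each well value was divided by the mean of 8 DMSO control wells on the same plate and log10 transformed; duplicate blinded samples were tested at 4 concentrations.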

[2] = compound: FC(F)(F)C(F)(F)C(F)(F)C(F)(F)C(F)(F)C(F)(F)I [Perfluoro-1-iodohexane]
Protocol: as §1

[3] = compound: FC(F)(F)C(F)(F)C(F)(F)C(F)(F)C(F)(F)CCI [1-Iodo-1H,1H,2H,2H-perfluoroheptane]
Protocol: as §1

[4] = compound: NC(=O)C(F)(F)C(F)(F)C(F)(F)F [Heptafluorobutyramide]
Protocol: as §1

[5] = compound: O=C(O)C(F)(F)C(F)(F)C(F)(F)OC(F)(C(F)(F)F)C(F)(F)F [Perfluoro-4-isopropoxybutanoic acid]
Protocol: as §1

[6] = compound: O=C(O)C(F)(F)C(F)(F)F [Perfluoropropanoic acid]
Protocol: as §1

[7] = compound: O=C(O)C(F)(F)OC(F)(F)C(F)(F)OC(F)(F)F [Perfluoro-3,6-dioxaheptanoic acid]
Protocol: as §1

Row | Test System | level (log10) ([1]; 6700 nM) | level (log10) ([1]; 20000 nM) | level (log10) ([2]; 6700 nM) | level (log10) ([2]; 20000 nM) | level (log10) ([2]; 60000 nM) | level (log10) ([3]; 6700 nM) | level (log10) ([3]; 20000 nM) | level (log10) ([3]; 60000 nM) | level (log10) ([4]; 6700 nM) | level (log10) ([4]; 20000 nM) | level (log10) ([4]; 60000 nM) | level (log10) ([5]; 6700 nM) | level (log10) ([5]; 20000 nM) | level (log10) ([5]; 60000 nM) | level (log10) ([6]; 6700 nM) | level (log10) ([6]; 20000 nM) | level (log10) ([6]; 60000 nM) | level (log10) ([7]; 6700 nM) | level (log10) ([7]; 20000 nM) | level (log10) ([7]; 60000 nM)
1 | HDF3CGF:SRB | -0.127 ± 0.011 | -0.153 ± 0.084 | 0.021 ± 0.035 | 0.0085 ± 0.018 | -0.0085 ± 0.067 | 0.0335 ± 0.036 | 0.0065 ± 0.023 | -0.052 ± 0.033 | 0.018 ± 0.0014 | 0.0035 ± 0.025 | 0.0075 ± 0.03 | -0.0125 ± 0.025 | 0.0115 ± 0.037 | -0.0055 ± 0.015 | -0.003 ± 0.0085 | -0.0175 ± 0.011 | -0.0335 ± 0.032 | 0 ± 0.013 | -0.015 ± 0.018 | 0.0175 ± 0.039
2 | 3C:CD142/Tissue Factor | 0.0825 ± 0.036 | 0.235 ± 0.059 | 0.0025 ± 0.032 | 0.0005 ± 0.013 | 0.0185 ± 0.022 | 0.003 ± 0.016 | 0.0155 ± 0.00071 | 0.0295 ± 0.00071 | -0.002 ± 0.064 | -0.007 ± 0.082 | -0.0235 ± 0.1 | -0.015 ± 0.0085 | -0.0185 ± 0.0035 | -0.002 ± 0.0057 | -0.008 ± 0.018 | -0.015 ± 0.0085 | 0.0065 ± 0.0035 | -0.0295 ± 0.047 | -0.025 ± 0.04 | -0.053 ± 0.0014
3 | HDF3CGF:CXCL11/I-TAC | -0.0535 ± 0.046 | -0.172 ± 0.041 | -0.0215 ± 0.011 | -0.0305 ± 0.016 | -0.183 ± 0.15 | -0.0155 ± 0.00071 | -0.027 ± 0.0042 | -0.143 ± 0.042 | 0.0015 ± 0.00071 | -0.0015 ± 0.0092 | -0.0305 ± 0.015 | 0.002 ± 0.021 | 0.008 ± 0.0042 | -0.0025 ± 0.00071 | -0.0325 ± 0.032 | -0.018 ± 0.033 | -0.0215 ± 0.057 | -0.017 ± 0.0057 | -0.0035 ± 0.022 | -0.0035 ± 0.012
4 | KF3CT:TIMP-2 | 0.0855 ± 0.037 | 0.04 ± 0.0028 | 0.0015 ± 0.013 | 0.0135 ± 0.019 | 0.0035 ± 0.011 | -0.012 ± 0.035 | -0.03 ± 0.028 | -0.0245 ± 0.03 | -0.001 ± 0.011 | 0.0075 ± 0.0035 | 0.008 ± 0.0042 | -0.0105 ± 0.011 | -0.005 ± 0.013 | 0.004 ± 0.021 | 0.014 ± 0.062 | -0.0115 ± 0.0092 | 0.0275 ± 0.012 | 0.024 ± 0.069 | -0.0365 ± 0.13 | -0.01 ± 0.12
5 | lMphg:sIL-10 | 0 ± 0.024 | -0.0505 ± 0.028 | -0.0575 ± 0.1 | -0.048 ± 0.0042 | -0.047 ± 0.0057 | 0.003 ± 0.033 | 0.01 ± 0.017 | -0.114 ± 0.062 | 0.002 ± 0.05 | -0.0445 ± 0.071 | -0.011 ± 0.058 | -0.116 ± 0.018 | -0.04 ± 0.047 | -0.187 ± 0.031 | -0.0045 ± 0.016 | 0.008 ± 0.0099 | -0.042 ± 0.024 | -0.0215 ± 0.0035 | 0.0045 ± 0.012 | -0.108 ± 0.044
6 | BE3C:uPA | -0.0025 ± 0.022 | -0.018 ± 0.031 | 0.0175 ± 0.015 | -0.0005 ± 0.0035 | 0.001 ± 0.0085 | 0.013 ± 0.011 | -0.0005 ± 0.019 | -0.0025 ± 0.033 | -0.011 ± 0.02 | -0.017 ± 0.024 | -0.0145 ± 0.019 | -0.001 ± 0.0042 | 0.0025 ± 0.012 | 0.0185 ± 0.0064 | -0.0165 ± 0.044 | 0.0015 ± 0.044 | 0.003 ± 0.041 | -0.0495 ± 0.079 | -0.028 ± 0.069 | -0.011 ± 0.041
7 | MyoF:Collagen IV | -0.0665 ± 0.013 | 0.078 ± 0.035 | -0.033 ± 0.027 | -0.031 ± 0.028 | 0.193 ± 0.013 | 0.03 ± 0.0071 | 0.0715 ± 0.0035 | 0.072 ± 0.028 | -0.0185 ± 0.019 | -0.01 ± 0.0028 | 0.0275 ± 0.023 | -0.007 ± 0.035 | -0.0025 ± 0.06 | 0.014 ± 0.047 | 0.0075 ± 0.0021 | -0.007 ± 0.011 | 0.0145 ± 0.019 | -0.011 ± 0.0085 | 0.0045 ± 0.013 | 0.0015 ± 0.021
8 | HDF3CGF:CXCL8/IL-8 | 0.0345 ± 0.016 | 0.011 ± 0.0071 | -0.0055 ± 0.0021 | -0.002 ± 0.0057 | -0.024 ± 0.037 | 0.001 ± 0.0099 | 0.011 ± 0.0028 | 0.0225 ± 0.0064 | -0.003 ± 0.0057 | 0.002 ± 0.0014 | 0.0045 ± 0.012 | 0.0015 ± 0.00071 | 0.0135 ± 0.0035 | 0.0035 ± 0.0021 | -0.0055 ± 0.0021 | 0.007 ± 0.011 | 0.017 ± 0.0057 | -0.004 ± 0.013 | 0.0015 ± 0.005 | 0.0185 ± 0.016
9 | lMphg:CD40 | -0.025 ± 0.017 | -0.0335 ± 0.018 | -0.011 ± 0.0071 | -0.0265 ± 0.0035 | -0.0375 ± 0.013 | -0.004 ± 0.0042 | -0.008 ± 0.013 | -0.058 ± 0.02 | -0.021 ± 0.011 | -0.0185 ± 0.037 | -0.0025 ± 0.025 | -0.012 ± 0.013 | -0.041 ± 0.034 | -0.027 ± 0.035 | -0.0045 ± 0.021 | -0.0145 ± 0.023 | 0.004 ± 0.0028 | -0.0125 ± 0.0035 | 0.0065 ± 0.028 | -0.0055 ± 0.036
10 | CASM3C:HLA-DR | -0.002 ± 0.024 | -0.111 ± 0.013 | 0.0075 ± 0.0092 | 0.004 ± 0.0057 | 0.0095 ± 0.022 | -0.006 ± 0.0099 | -0.0055 ± 0.0064 | -0.009 ± 0.021 | 0.003 ± 0.024 | -0.0025 ± 0.0021 | -0.012 ± 0.038 | -0.0205 ± 0.029 | -0.0315 ± 0.023 | -0.013 ± 0.04 | 0.015 ± 0.023 | -0.013 ± 0.011 | 0.0365 ± 0.0021 | -0.0355 ± 0.069 | -0.0385 ± 0.074 | -0.047 ± 0.057
11 | CASM3C:SRB | -0.0265 ± 0.0078 | -0.097 ± 0.014 | 0.0035 ± 0.013 | 0.0015 ± 0.0021 | -0.0015 ± 0.016 | 0.0035 ± 0.0021 | -0.0075 ± 0.0078 | -0.024 ± 0.0028 | -0.0135 ± 0.0078 | 0 ± 0.018 | -0.0065 ± 0.0078 | 0.0015 ± 0.005 | -0.007 ± 0.0071 | 0.0015 ± 0.012 | 0.0035 ± 0.00071 | -0.0015 ± 0.00071 | -0.0015 ± 0.005 | -0.0065 ± 0.00071 | -0.002 ± 0.0028 | -0.0005 ± 0.0035
12 | MyoF:SRB | -0.0265 ± 0.00071 | -0.175 ± 0.07 | -0.0405 ± 0.05 | -0.263 ± 0.16 | -0.712 ± 0.15 | 0.001 ± 0.0099 | 0.0085 ± 0.015 | 0.0085 ± 0.025 | -0.011 ± 0.017 | -0.0035 ± 0.0078 | -0.0005 ± 0.005 | -0.0055 ± 0.0021 | 0.0015 ± 0.00071 | -0.0035 ± 0.0064 | 0.0015 ± 0.012 | 0.0005 ± 0.011 | -0.0015 ± 0.0092 | -0.0055 ± 0.0035 | -0.0015 ± 0.00071 | 0.004 ± 0.0085
13 | BE3C:SRB | -0.0175 ± 0.011 | -0.04 ± 0.0071 | -0.0125 ± 0.005 | 0.001 ± 0.017 | 0 ± 0.013 | -0.003 ± 0.0057 | -0.0105 ± 0.0021 | -0.0085 ± 0.012 | -0.0025 ± 0.0035 | 0.0005 ± 0.00071 | -0.002 ± 0.0042 | -0.0035 ± 0.00071 | -0.0095 ± 0.00071 | 0.001 ± 0.0085 | -0.0015 ± 0.0021 | -0.003 | 0.0035 ± 0.00071 | 0.0005 ± 0.0064 | -0.0025 ± 0.00071 | 0.0015 ± 0.0064
